Experimental data taken from patent publication US20250263408A1 (Uniquest Pty Ltd, priority 2022, published 2025).

What was measured:
[1] = test system: Ba/F3-WT (wild type) cells; test: Ba/F3 Proliferation Assay, Ba/F3-WT (wild type) cells with mIL-3 (Resazurin); format: cell-based; conditions: Ba/F3-WT cells +mIL-3, 48-hour incubation
Protocol: (§1) Ba/F3-Syk and Ba/F3-WT (wild type) cells were maintained at ≤1×10^6 cell/mL in RPMI (Life Technologies) with 10% FBS at 37° C. and 5% CO2 for a maximum of four weeks. Ba/F3-WT additionally contained 2 ng/mL mIL-3 (R&D Systems) to induce cellular growth. Cells were counted and dispensed at 5000 cells/well using a Multidrop Liquid Dispenser in a volume of 45 μL into black 384-well TC treated plates (Greiner) and incubated for four hours in complete media (+mIL-3 for Ba/F3-WT). Compounds were serially diluted in 100% DMSO, prior to an intermediate dilution in RPMI media. 5 μL of compound (0.4% final DMSO) was added to the cells, followed by a 48-hour incubation period. 5 μL of Resazurin (60 μM final) was then added and cells were incubated at 37° C. for three hours, before fluorescence (λex530/λem585) was measured using an Ensight Multimode Plate Reader (Perkin Elmer).

[2] = biological target: T1, Ba/F3-Syk cells (Homo sapiens, UniProt P43405); test: Ba/F3 Proliferation Assay, Ba/F3-Syk cells (Resazurin); format: cell-based; conditions: 48-hour incubation
T1 construct: fused on or other part: Possible but unprinted fusion partner: TEL (ETV6), the usual partner for Ba/F3 lines transformed by Syk; Nothing on a partner is printed
Protocol: as §1

Row | EC50 ([1]; Mus musculus, BaF3, 48 h) | EC50 [2] | EC50 [1] | Compound
1 | > 1000 nM | 68.7 nM |  | c1cnc2cc(-c3cnn([C@@H]4CCOC4)c3)nc(OC[C@@H]3CNCCO3)c2c1 [Compound 6.45, 5-{[(2S)-morpholin-2-yl]methoxy}-7-{1-[(3R)-oxolan-3-yl]-1H-pyrazol-4-yl}-1,6-naphthyridine]
2 | 1590 nM | 390 nM |  | Clc1ccc(-c2cc3ncccc3c(OC[C@@H]3CNCCO3)n2)s1 [Compound 2.33, 7-(5-chlorothiophen-2-yl)-5-{[(2S)-morpholin-2-yl]methoxy}-1,6-naphthyridine]
3 | > 10000 nM | 734 nM |  | c1cnc2cc(-c3ccn[nH]3)nc(OC[C@@H]3CNCCO3)c2c1 [Compound 2.28, 5-{[(2S)-morpholin-2-yl]methoxy}-7-(1H-pyrazol-5-yl)-1,6-naphthyridine]
4 | 1440 nM | 30.7 nM |  | COCCn1ccc(-c2cc3ncccc3c(O[C@H](C)[C@@H]3CNCCO3)n2)c1 [Compound 6.29, 7-[1-(2-methoxyethyl)-1H-pyrrol-3-yl]-5-[(1R)-1-[(2S)-morpholin-2-yl]ethoxy]-1,6-naphthyridine]
5 | > 10000 nM | 171 nM |  | CC1(C)CNC[C@@H](COc2cc(-c3cnn(C(C)(C)C)c3)cc3ncncc23)O1 [Compound 4.2, 7-(1-tert-butyl-1H-pyrazol-4-yl)-5-{[(2S)-6,6-dimethyl-morpholin-2-yl]methoxy} quinazoline]
6 | 6310 nM | 51.7 nM |  | C[C@@H]1NCCO[C@@H]1COc1nc(-c2ccn(C)c2)cc2ncccc12 [Compound 13.5, 7-(1-methyl-1H-pyrrol-3-yl)-5-{[(2S,3S)-3-methylmorpholin-2-yl]methoxy}-1,6-naphthyridine]
7 | 3290 nM | 36.2 nM |  | CC1(C)CNC[C@@H](COc2nc(-c3ccn(C4CC4(F)F)c3)cc3ncccc23)O1 (stereo partly drawn) [Compound 6.18, 7-[1-(2,2-difluorocyclopropyl)-1H-pyrrol-3-yl]-5-{[(2S)-6,6-dimethylmorpholin-2-yl]methoxy}-1,6-naphthyridine]
8 | 2730 nM | 21.7 nM |  | CC1(C)CNC[C@@H](COc2nc(-c3cnn(C4(C)CCOC4)c3)cc3ncccc23)O1 (stereo partly shown) [Compound 2.89]
9 | 2020 nM | 92 nM |  | CC[C@@H](C)n1cc(-c2cc3ncccc3c(OC[C@@H]3CNCCO3)n2)cn1 [Compound 6.32, 7-{1-[(2R)-butan-2-yl]-1H-pyrazol-4-yl}-5-{[(2S)-morpholin-2-yl]methoxy}-1,6-naphthyridine]
10 | 2080 nM | 91.8 nM |  | CC[C@H](C)n1cc(-c2cc3ncccc3c(OC[C@@H]3CNCCO3)n2)cn1 [Compound 6.34, 7-{1-[(2S)-butan-2-yl]-1H-pyrazol-4-yl}-5-{[(2S)-morpholin-2-yl]methoxy}-1,6-naphthyridine]
11 | 1960 nM | 15.8 nM |  | CCn1ccc(-c2cc(OC[C@@H]3CNCC(C)(C)O3)c3cccnc3c2)c1 [Compound 7.17, 5-{[(2S)-6,6-dimethylmorpholin-2-yl]methoxy}-7-(1-ethyl-1H-pyrrol-3-yl)quinoline]
12 | 1240 nM | 27.7 nM |  | CC[C@@H]1CNC[C@@H](COc2nc(-c3cnn(C(C)(C)C)c3)cc3ncccc23)O1 [Compound 2.93, 7-(1-tert-butyl-1H-pyrazol-4-yl)-5-{[(2S,6R)-6-ethylmorpholin-2-yl]methoxy}-1,6-naphthyridine]
13 | 1440 nM | 59.8 nM |  | CC(F)(F)Cn1cc(-c2cc3ncccc3c(OC[C@@H]3CNCCO3)n2)cn1 [Compound 6.40, 7-[1-(2,2-difluoropropyl)-1H-pyrazol-4-yl]-5-{[(2S)-morpholin-2-yl]methoxy}-1,6-naphthyridine]
14 | 2880 nM | 109 nM |  | C[C@H]1CNC[C@@H](COc2nc(-c3cnn(C)c3)cc3ncccc23)O1 [Compound 2.74, 7-(1-methyl-1H-pyrazol-4-yl)-5-{[(25,6S)-6-methylmorpholin-2-yl]methoxy}-1,6-naphthyridine]
15 | 930 nM | 2.4 nM |  | Cc1ccnc2cc(-c3cnn(C(C)C)c3)cc(OC[C@@H]3CNCC(C)(C)O3)c12 (stereo in doubt) [Compound 14.7, 5-[(6,6-dimethylmorpholin-2-yl)methoxy]-4-methyl-7-[1-(propan-2-yl)-1H-pyrazol-4-yl]quinoline]
16 | 902 nM | 61.8 nM |  | c1cnc2cc(-c3cnn(C4CCC4)c3)cc(OC[C@@H]3CNCCO3)c2c1 [Compound 3.5, 7-(1-cyclobutyl-1H-pyrazol-4-yl)-5-{[(2S)-morpholin-2-yl]methoxy}quinoline]
17 | 560 nM | 60.3 nM |  | FC1(F)CC(Cn2cc(-c3cc4ncccc4c(OC[C@@H]4CNCCO4)n3)cn2)C1 [Compound 6.37]

Row | EC50 ([1]; Mus musculus, BaF3, 48 h) | EC50 [2] | EC50 [1] | Compound
18 |  | 90.9 nM | 3210 nM | 5-{[(2R)-6,6-dimethylmorpholin-2-yllmethoxy}-7-[1-(3-methyloxolan-3-yl)-1H-pyrazol-4-yl]-1,6-naphthyridine [Compound 10.13]
19 | 478 nM | 9.9 nM |  | CC(C)n1cc(-c2cc(OC[C@@H]3CNC[C@@H](C)O3)c3nccnc3c2)cn1 [Compound 12.6, 5-{[(2S,6R)-6-methylmorpholin-2-yl]methoxy}-7-[1-(propan-2-yl)-1H-pyrazol-4-yl]quinoxaline]
20 | 2830 nM | 1230 nM |  | Cc1cc(-c2cc3ncccc3c(OC[C@@H]3CNCCO3)n2)c(C)s1 [Compound 2.37, 7-(2,5-dimethylthiophen-3-yl)-5-{[(2S)-morpholin-2-yl]methoxy}-1,6-naphthyridine]
21 | 3340 nM | 49.4 nM |  | CCn1ccc(-c2cc3ncccc3c(O[C@H](C)[C@@H]3CNCCO3)n2)c1 [Compound 6.31, 7-(1-ethyl-1H-pyrrol-3-yl)-5-[(1R)-1-[(2S)-morpholin-2-yl]ethoxy]-1,6-naphthyridine]
22 | 2770 nM | 97.5 nM |  | FC(F)Cn1cc(-c2cc(OC[C@@H]3CNCCCO3)c3cccnc3c2)cn1 [Compound 7.15, 7-[1-(2,2-difluoroethyl)-1H-pyrazol-4-yl]-5-{[(2S)-1,4-oxazepan-2-yl]methoxy}quinoline]
23 | 1620 nM | 20.5 nM |  | CCn1ccc(-c2cc(OC[C@@H]3CNCCCO3)c3nccnc3c2)c1 [Compound 8.9, 7-(1-ethyl-1H-pyrrol-3-yl)-5-{[(2S)-1,4-oxazepan-2-yl]methoxy}quinoxaline]
24 | 867 nM | 5.5 nM |  | Cc1ccnc2cc(-c3ccn(C4COC4)c3)cc(OC[C@@H]3CNCC(C)(C)O3)c12 [Compound 14.12, 5-{[(2S)-6,6-dimethylmorpholin-2-yl]methoxy}-4-methyl-7-[1-(oxetan-3-yl)-1H-pyrrol-3-yl]quinoline]
25 | 421 nM | 2.7 nM |  | CC(C)n1ccc(-c2cc(OC[C@@H]3CNC[C@@H](C)O3)c3nccnc3c2)c1 [Compound 8.23, 5-{[(2S,6R)-6-methylmorpholin-2-yl]methoxy}-7-[1-(propan-2-yl)-1H-pyrrol-3-yl]quinoxaline]
26 | 3270 nM | 48 nM |  | CC(C)(C)n1cc(-c2cc3ncccc3c(OCC3CNCCCO3)n2)cn1 (stereo not shown) [Compound 2.47, 7-(1-tert-butyl-1H-pyrazol-4-yl)-5-[(1,4-oxazepan-2-yl)methoxy]-1,6-naphthyridine]
27 | 5010 nM | 586 nM |  | Cn1ccc(-c2cc(OC[C@@H]3CNCCO3)c3cncnc3c2)c1 [Compound 4.3, 7-(1-methyl-1H-pyrrol-3-yl)-5-{[(2S)-morpholin-2-yl]methoxy} quinazoline]
28 | 3070 nM | 27.5 nM |  | Cn1ccc(-c2cc(OC[C@@H]3CNCC4(CC4)O3)c3nccnc3c2)c1 [Compound 12.4, 7-(1-methyl-1H-pyrrol-3-yl)-5-{[(5S)-4-oxa-7-azaspiro[2.5]octan-5-yl]methoxy}quinoxaline]
29 | 8090 nM | 663 nM |  | c1cnc2cc(-c3cnn4c3CCCC4)nc(OC[C@@H]3CNCCO3)c2c1 [Compound 10.4, 5-{[(2S)-morpholin-2-yl]methoxy}-7-{4H,5H,6H,7H-pyrazolo[1,5-a]pyridin-3-yl}-1,6-naphthyridine]
30 | 1700 nM | 243 nM |  | Clc1cc(-c2cc3ncccc3c(OC[C@@H]3CNCCO3)n2)cs1 [Compound 2.39, 7-(5-chlorothiophen-3-yl)-5-{[(2S)-morpholin-2-yl]methoxy}-1,6-naphthyridine]
31 | 740 nM | 69.7 nM |  | C[C@@H](Oc1cc(-c2cnn(C)c2)cc2ncccc12)[C@@H]1CNCC(C)(C)O1 [Compound 11.4, 5-[(1R)-1-[(2S)-6,6-dimethylmorpholin-2-yl]ethoxy]-7-(1-methyl-1H-pyrazol-4-yl)quinoline]
32 |  | 59.3 nM |  | CC(C)(C)n1cc(-c2cc3ncccc3c(OC[C@@H]3CN[C@H]4CCC[C@H]4O3)n2)cn1 (relative stereo) [Compound 2.85, 5-{[rel-(2S,4aS,7aR)-octahydrocyclopenta[b][1,4]oxazin-2-yl]methoxy}-7-(1-tert-butyl-1H-pyrazol-4-yl)-1,6-naphthyridine]
33 |  | 145 nM |  | CC(C)(C)n1cc(-c2cc3ncccc3c(OC[C@@H]3CN[C@H]4CCC[C@H]4O3)n2)cn1 (stereo in doubt) [Compound 2.94, 5-{[(2S,4aS,7aR)-octahydrocyclopenta[b][1,4]oxazin-2-yl]methoxy}-7-(1-tert-butyl-1H-pyrazol-4-yl)-1,6-naphthyridine]
